From PMC9927415, “Tyrosine Kinase Inhibitors Display Potent Activity against Cryptosporidium parvum” (Microbiology Spectrum, 2022)

Experiments:
HepG2 cells = experiment: Host cell cytotoxicity assay (CellTiter-Glo); settings: HepG2 CC50/C. parvum EC50
Protocol: HepG2 cells were grown in Eagle’s Minimum Essential Medium (MEM) containing 10% FBS, 1% nonessential amino acids (NEAA) and 1% penicillin/streptomycin to >50% confluence prior to harvesting. Cells were suspended in media and 3000 cells per well were added onto 384-well clear bottom plates. Prior to addition of the cell suspension, the screening compounds (250 nl) were predispensed into plates using a liquid handler. Plates were incubated for 48 h at 37°C, 5% CO2. After 48 h of incubation, plates were equilibrated at room temperature for 30 min before luminescence signal was measured using CellTiter-Glo Reagent. Plates were kept at room temperature for 10 min to stabilize the signal and then read using a ViewLux luminescence reader. The HepG2 CC50 (from the host cell cytotoxicity assays) and C. parvum mean EC50 (from parasite growth inhibition assays) values were used to calculate selectivity index.

panel of 203 kinases = experiment: KINOMEscan competitive binding, whole panel; parameters: species or system human; settings: 10 μM; for number of other kinases strongly bound (≥99%): not including the CDKs and Aurora kinase A
Method in brief: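 This competitive binding format measures displacement of T7 phage-tagged kinases from an immobilized ATP-site ligand by the test compound; values are percentage inhibition.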

STK36 = target: T1, STK36 (Homo sapiens, UniProt Q9NRP7); experiment: KINOMEscan competitive binding; settings: n=1, read-out: Percent inhibition, STK36
T1 construct: purchased DiscoverX (KINOMEscan)
T1 sequence (Q9NRP7 1-1315): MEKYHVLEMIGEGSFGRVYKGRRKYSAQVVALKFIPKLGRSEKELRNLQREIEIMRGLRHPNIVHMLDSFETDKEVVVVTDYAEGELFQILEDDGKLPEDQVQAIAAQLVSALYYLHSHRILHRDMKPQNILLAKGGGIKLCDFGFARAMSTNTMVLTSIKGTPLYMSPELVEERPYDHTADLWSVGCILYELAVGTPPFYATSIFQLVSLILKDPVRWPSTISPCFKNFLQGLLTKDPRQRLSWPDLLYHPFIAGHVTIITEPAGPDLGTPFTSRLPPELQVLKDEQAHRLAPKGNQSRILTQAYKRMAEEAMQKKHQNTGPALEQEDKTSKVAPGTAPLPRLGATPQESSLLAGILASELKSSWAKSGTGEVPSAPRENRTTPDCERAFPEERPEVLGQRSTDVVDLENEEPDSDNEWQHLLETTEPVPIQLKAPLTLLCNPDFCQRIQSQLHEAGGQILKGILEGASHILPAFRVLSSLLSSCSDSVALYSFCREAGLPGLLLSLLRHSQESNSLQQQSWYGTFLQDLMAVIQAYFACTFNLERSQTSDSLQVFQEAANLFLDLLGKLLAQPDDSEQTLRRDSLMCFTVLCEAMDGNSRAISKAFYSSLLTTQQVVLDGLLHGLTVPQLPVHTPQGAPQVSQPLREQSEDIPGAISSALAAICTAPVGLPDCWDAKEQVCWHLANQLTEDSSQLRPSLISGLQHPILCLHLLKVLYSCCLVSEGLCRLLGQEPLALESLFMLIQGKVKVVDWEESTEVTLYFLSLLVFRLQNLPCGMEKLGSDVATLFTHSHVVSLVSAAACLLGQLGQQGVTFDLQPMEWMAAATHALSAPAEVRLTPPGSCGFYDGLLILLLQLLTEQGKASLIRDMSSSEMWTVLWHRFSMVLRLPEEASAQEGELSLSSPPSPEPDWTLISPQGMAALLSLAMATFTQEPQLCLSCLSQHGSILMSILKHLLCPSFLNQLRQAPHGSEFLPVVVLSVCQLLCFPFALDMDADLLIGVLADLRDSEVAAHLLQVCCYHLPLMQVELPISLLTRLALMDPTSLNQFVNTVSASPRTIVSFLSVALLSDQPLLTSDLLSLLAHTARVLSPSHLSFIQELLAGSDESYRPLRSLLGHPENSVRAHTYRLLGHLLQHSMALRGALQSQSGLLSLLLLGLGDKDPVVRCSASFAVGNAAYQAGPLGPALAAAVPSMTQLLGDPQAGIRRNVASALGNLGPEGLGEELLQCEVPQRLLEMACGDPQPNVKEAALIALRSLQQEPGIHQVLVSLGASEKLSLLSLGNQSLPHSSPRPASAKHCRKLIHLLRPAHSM

JAK kinase domains = experiment: KINOMEscan competitive binding; parameters: species or system human; settings: kinome profiling, 10 μM
Source text: The kinases were expressed as fusions to T7 bacteriophage. This is a sensitive, competitive binding assay where test compounds were used to displace immobilized ATP-site binding probe ligands from kinases of interest. The amount of kinase that remained bound to the immobilized probe ligands on the solid support was quantified. Percentage inhibition data were was plotted on kinome trees using the web-based tool KinMap (http://www.kinhub.org/kinmap) ([60]).

JAK3 = target: JAK3; parameters: method as in earlier work; settings: previous study; read-out: Ki against JAK3; cited from earlier work
ROCK1 = target: ROCK1; parameters: method as in earlier work; settings: previous study; read-out: Ki against ROCK1; cited from earlier work

Structure (SMILES)	Selectivity index (HepG2 cells)	inhibition at 10 µM (STK36)	further results
CN1CCN(c2ccc(Nc3nccc(-c4cnn5ncccc45)n3)cc2C#N)CC1 [Compound 1]	>100	100%	number of other kinases strongly bound (≥99%) (panel of 203 kinases): 50
COc1ccc(Nc2nccc(-c3cnn4ncccc34)n2)cc1 [Compound 2]	>100	98.8%	number of other kinases strongly bound (≥99%) (panel of 203 kinases): 28
Cc1ccc(O)cc1Nc1ccnc(Nc2cccc(C(N)=O)c2)n1 [Compound 3]		98.4%	
Cc1ccc(O)cc1N(C)c1ccnc(Nc2cccc(S(N)(=O)=O)c2)n1 [Compound 4]		99.3%	
Fc1cccc(COc2ccc(Nc3ncnc4c3CN(CCN3CCOCC3)CC4)cc2Cl)c1 [Compound 6]	>100	0%	
COc1cc(Nc2nccc(-c3sc(N)nc3-c3cccc(NC(=O)c4c(F)cccc4F)c3)n2)cc(OC)c1OC [Compound 7]	14	100%	number of kinases with >99% inhibition (panel of 203 kinases): 48
C[C@@H](Oc1cc(-c2cnc3ccccn23)sc1C(N)=O)c1ccccc1Cl [Compound 8]		0%	
c1ccc(COc2cccc(-c3ccnc4[nH]ccc34)c2)cc1 [Compound 9]		0%	binding to JAK kinase domains, in words (JAK kinase domains): little binding; Ki (JAK3): < 500 nM; Ki (ROCK1): < 500 nM
Clc1ccc(Nc2ncc(-c3ccccc3)s2)cc1 [Compound 10]		0%	
Nc1ncc2c(-c3ccncc3)c[nH]c2n1 [Compound 11]	>100	0%	
